Consider 1 substance from publication PMC8868518, “Exploring Titanium(IV) Complexes as Potential Antimicrobial Compounds” (Antibiotics, 2022).

The subject of data set [1] is A. baumannii (ATCC 19606). The experiment in a line: CO-ADD antibacterial assay, growth inhibition (OD600). The class given is cell-based, Acinetobacter baumannii. To be noted: up to 32 μg/mL. The procedure:
(§1) Dry compounds ranging from 1–2 mg were weighed into properly labeled Eppendorf tubes and sealed with parafilm. The compounds were used as received by the CO-ADD. For the screenings, most compounds were dissolved to a stock concentration of 10 mg/mL in DMSO. K2[Ti(Citrate)3], Na3Citrate, and K2[TiO(Oxalate)2] were dissolved in warm water. […] Samples were diluted in water to a final testing concentration of 32 µg/mL while keeping the final co-solvent concentration to a maximum of 0.5%. Where applicable, compounds were serially diluted 1:2 fold eight times. Each sample concentration was prepared in 384-well plates, non-binding surface plate (NBS; Corning 3640) for each bacterial/fungal strain, tissue-culture treated (TC-treated; Corning 3712/3764), black for mammalian cell types and polypropylene 384-well (PP; Corning 3657) for hemolysis assays, all in duplicate (n = 2), and keeping the final DMSO concentration to a maximum of 0.5%. All sample preparation was conducted using liquid handling robots.
(§2) For the bacterial assays, four Gram-negative bacteria (E. coli (ATCC 25922, Manassas, VA, USA); K. pneumoniae (ATCC 700603), A. baumannii; (ATCC 19606), and P. aeruginosa (ATCC 27853) and the Gram-positive bacteria (S. aureus MRSA (ATCC 43300) were used. Each strain was cultured in cation-adjusted Mueller Hinton broth (CAMHB; Bacto Laboratories 212322, Mount Pritchard, Australia) at 37 °C overnight. A sample of each culture was then diluted 40-fold in fresh CAMHB and incubated at 37 °C for 1.5–3 h. The resultant mid-log phase cultures were diluted with CAMHB (CFU/mL measured by OD600), then added to each well of the compound-containing plates (384-well non-binding surface (NBS) plates; Corning CLS3640, Millipore Sigma, Burlington, MA, USA), giving a cell density of 5 × 10^5 CFU/mL and a total volume of 50 µL. Plates were covered and incubated at 37 °C for 18 h without shaking. Inhibition of bacterial growth was determined by measuring absorbance at 600 nm (OD600) with a Tecan M1000 Pro monochromator plate reader, using media-only as negative control and bacteria without inhibitors as a positive control. […] Colistin sulfate (Sigma C4461) and vancomycin HCl (Sigma 861987) were used as internal controls on each plate for Gram-negative and Gram-positive bacteria, respectively.

Data set [2] deals with HEK293 ATCC CRL-1573 human embryonic kidney cells. The experiment in a line: CO-ADD cytotoxicity assay (resazurin). The class given is cell-based. Conditions: all concentrations examined (0.25-32 μg/mL), 20 h; CC50 could not be measured. The procedure:
The compounds were used as received by the CO-ADD. For the screenings, most compounds were dissolved to a stock concentration of 10 mg/mL in DMSO. K2[Ti(Citrate)3], Na3Citrate, and K2[TiO(Oxalate)2] were dissolved in warm water. [Cu(Deferasirox)(H2O)]2 was dissolved in pyridine after its solubility was determined to be excellent in pyridine due to coordination of the solvent to the metal producing [Cu(Deferasirox)(pyridine)]2 in situ. […] Each sample concentration was prepared in 384-well plates, non-binding surface plate (NBS; Corning 3640) for each bacterial/fungal strain, tissue-culture treated (TC-treated; Corning 3712/3764), black for mammalian cell types and polypropylene 384-well (PP; […] All sample preparation was conducted using liquid handling robots. HEK293 ATCC CRL-1573 human embryonic kidney cells were counted manually in a Neubauer hemocytometer and added to compound-containing plates (384-well plates, tissue culture-treated (TC); […] Life Technologies 11995-073) with 10% FBS (GE SH30084.03).
In general terms: Alamar Blue is a resazurin reagent that responds to reducing activity.

The test system of data set [3] is C. neoformans (ATCC 208821). Nature of the data set: CO-ADD antifungal assay, growth inhibition (resazurin, OD600-570). Type of data set: cell-based, Cryptococcus neoformans. To be noted: up to 32 μg/mL. The procedure: (§3) The compounds were used as received by the CO-ADD. For the screenings, most compounds were dissolved to a stock concentration of 10 mg/mL in DMSO. K2[Ti(Citrate)3], Na3Citrate, and K2[TiO(Oxalate)2] were dissolved in warm water. [Cu(Deferasirox)(H2O)]2 was dissolved in pyridine after its solubility was determined to be excellent in pyridine due to coordination of the solvent to the metal producing [Cu(Deferasirox)(pyridine)]2 in situ. […] Each sample concentration was prepared in 384-well plates, non-binding surface plate (NBS; Corning 3640) for each bacterial/fungal strain, tissue-culture treated (TC-treated; Corning 3712/3764), black for mammalian cell types and polypropylene 384-well (PP; […] All sample preparation was conducted using liquid handling robots. For the fungal assays, the fungi (C. albicans (ATCC 90028) and C. neoformans) (ATCC 208821) were used. Both fungi (yeast) strains were cultured for 3 days on Yeast Extract-Peptone Dextrose (YPD; Becton Dickinson 242720, Thermo Fisher Scientific, Waltham, MA, USA) agar at 30 °C. A yeast suspension of 1 × 10^6 to 5 × 10^6 CFU/mL (as determined by OD530) was prepared from five colonies from the agar plates, subsequently diluted with Yeast Nitrogen Base media (YNB; Becton Dickinson 233520, Thermo Fisher Scientific, Waltham, MA, USA), and added to each well of the compound-containing plates (384-well plates, NBS; Corning CLS3640) giving a final cell density of 2.5 × 10^3 CFU/mL and a total volume of 50 μL. Plates were covered and incubated at 35 °C for 36 h without shaking. […] Sigma R7017) and incubation at 35 °C for 2 h, using media-only as a negative control and fungi without inhibitors as a positive control. […] Fluconazole (Sigma F8929) was used as an internal control on each plate for both strains.

Another data set has as its system MRC-5 cells. Conditions: cited from earlier work.
The subject of data set [4] is K. pneumoniae (ATCC 700603). The experiment in a line: CO-ADD antibacterial assay, growth inhibition (OD600). The class given is cell-based, Klebsiella pneumoniae. To be noted: up to 32 μg/mL. The procedure:
as §1, §2

Another data set concerns E. coli (ATCC 25922). The data set is described as above. The class given is cell-based, Escherichia coli. To be noted: up to 32 μg/mL. The procedure: as §1, §2
The next data set deals with C. albicans (ATCC 90028). The experiment in a line: CO-ADD antifungal assay, growth inhibition (OD630). The class given is cell-based, Candida albicans. Conditions: up to 32 μg/mL. The procedure:
as §3

Data set [5] relates to P. aeruginosa (ATCC 27853). The experiment in a line: CO-ADD antibacterial assay, growth inhibition (OD600). The class given is cell-based, Pseudomonas aeruginosa. Conditions: up to 32 μg/mL. The procedure:
as §1, §2

Data set [6] relates to S. aureus MRSA (ATCC 43300). Described as above. Type of data set: cell-based, Staphylococcus aureus. The procedure: as §1, §2
The mark [7] stands for this setting: predicted or measured MIC, ≥75% growth inhibition.
Where [8] appears, read: predicted or measured MIC, ≥75% growth inhibition, 36 h.

For the substance “4-[(3Z,5E)-3,5-Bis(6-oxocyclohexa-2,4-dien-1-ylidene)-1,2,4-triazolidin-1-yl] benzoic acid [Compound 4, reference compound]”, the “MIC A. baumannii” value in [1] (setting [7]) is above 32 µg/mL. The “Dmax A. baumannii, maximum % inhibition” value in data set [1] is 18.95%. In addition, in [2], the “antiproliferative effect against HEK293 (in words)” value is “inactive”. In data set [3] (setting [8]), the “MIC C. neoformans” value was above 32 µg/mL. For the same substance, the “Dmax C. neoformans, maximum % inhibition” value in data set [3] is listed as −25.58%. For the same substance, in the data set on MRC-5 cells, the “IC50 ± SD (µM)” value is listed as “Proliferative Behavior” and the “increase in the proliferation of MRC-5 cells” value was “nearly three-fold increase”. Also, the “MIC K. pneumoniae” value in data set [4] (setting [7]) is above 32 µg/mL. In data set [4], the “Dmax K. pneumoniae, maximum % inhibition” value worked out at 20.2%. In the data set with E. coli (ATCC 25922) (setting [7]), the “MIC E. coli” value is above 32 µg/mL. In the data set on E. coli (ATCC 25922), the “Dmax E. coli, maximum % inhibition” value worked out at 7.72%. Further, the “MIC C. albicans” value in the data set on C. albicans (ATCC 90028) (setting [8]) was above 32 µg/mL. For the same substance, the “Dmax C. albicans, maximum % inhibition” value with C. albicans (ATCC 90028) is given as 4.31%. Besides, the “MIC P. aeruginosa” value in data set [5] (setting [7]) is above 32 µg/mL. In addition, the “Dmax P. aeruginosa, maximum % inhibition” value in data set [5] is reported as 5.82%. Further, the “MIC S. aureus (MRSA)” value in data set [6] (predicted or measured MIC, lowest concentration with ≥75% growth inhibition, 0.25-32 μg/mL, 18 h) was above 32 µg/mL. The “Dmax S. aureus (MRSA), maximum % inhibition” value in [6] (up to 32 μg/mL) amounted to 44.31%.
